Converted amounts (≈) assume the structure as drawn.
How the values were obtained:
Format in all cases: functional
Geotrichum candidum = experiment: Antifungal activity against Geotrichum candidum RCMB 052006 assessed as diameter of inhibition zone incubated for 24 hrs by well diffusion assay
Bacillus subtilis = experiment: Antibacterial activity against Bacillus subtilis RCMB 010069 assessed as diameter of inhibition zone incubated for 24 hrs by well diffusion assay
Aspergillus flavus = experiment: Antifungal activity against Aspergillus flavus assessed as diameter of inhibition zone incubated for 24 hrs by well diffusion assay
Staphylococcus aureus [1] = experiment: Antibacterial activity against Staphylococcus aureus assessed as diameter of inhibition zone incubated for 24 hrs by well diffusion assay
Escherichia coli = experiment: Antibacterial activity against Escherichia coli RCMB 010052 assessed as diameter of inhibition zone incubated for 24 hrs by well diffusion assay
Proteus vulgaris = experiment: Antibacterial activity against Proteus vulgaris RCMB 004 assessed as diameter of inhibition zone incubated for 24 hrs by well diffusion assay
Enterococcus faecium = experiment: Antibacterial activity against Enterococcus faecium assessed as inhibition of bacterial growth
[2] = tested on: Staphylococcus epidermidis; experiment: Antibacterial activity against Methicillin-sensitive Staphylococcus epidermidis assessed as bacterial growth inhibition
Staphylococcus aureus [3] = experiment: Antibacterial activity against Methicillin-resistant Staphylococcus aureus assessed as bacterial growth inhibition
Staphylococcus aureus [4] = experiment: Antibacterial activity against Methicillin-sensitive Staphylococcus aureus assessed as bacterial growth inhibition
Enterococcus faecalis = experiment: Antibacterial activity against Enterococcus faecalis assessed as bacterial growth inhibition
[5] = tested on: Staphylococcus epidermidis; experiment: Antibacterial activity against Methicillin-resistant Staphylococcus epidermidis assessed as bacterial growth inhibition
Nannizzia gypsea = experiment: Antifungal activity against Microsporum gypseum assessed as reduction in fungal growth incubated for 5 to 7 days by NCCLS based assay; settings: time 5-7 day
Cryptococcus neoformans = experiment: Antifungal activity against Cryptococcus neoformans 32609 assessed as reduction in fungal growth incubated for 72 hrs by NCCLS based assay
Nakaseomyces glabratus = experiment: Antifungal activity against Candida glabrata 537 assessed as reduction in fungal growth incubated for 72 hrs by NCCLS based assay
Aspergillus fumigatus = experiment: Antifungal activity against Aspergillus fumigatus 7544 assessed as reduction in fungal growth incubated for 5 to 7 days by NCCLS based assay; settings: time 5-7 day
Candida albicans [6] = experiment: Antifungal activity against Candida albicans Y0109 assessed as reduction in fungal growth incubated for 24 hrs by NCCLS based assay
Trichophyton rubrum = experiment: Antifungal activity against Trichophyton rubrum assessed as reduction in fungal growth incubated for 5 to 7 days by NCCLS based assay; settings: time 5-7 day
Candida albicans [7] = experiment: Antifungal activity against Candida albicans SC5314 assessed as reduction in fungal growth incubated for 24 hrs by NCCLS based assay

SMILES | diameter of the inhibition zone (DIZ) (Geotrichum candidum) [mm] | diameter of the inhibition zone (DIZ) (Bacillus subtilis) [mm] | diameter of the inhibition zone (DIZ) (Aspergillus flavus) [mm] | diameter of the inhibition zone (DIZ) (Staphylococcus aureus [1]) [mm] | diameter of the inhibition zone (DIZ) (Escherichia coli) [mm] | diameter of the inhibition zone (DIZ) (Proteus vulgaris) [mm] | MIC (Enterococcus faecium) [mg/L] | MIC [2] [mg/L] | MIC (Staphylococcus aureus [3]) [mg/L] | MIC (Staphylococcus aureus [4]) [mg/L] | MIC (Enterococcus faecalis) [mg/L] | MIC [5] [mg/L] | other results
Cc1c(C(=O)/C=C/c2ccccn2)nnn1-c1ccc(-n2nnc(C(=O)/C=C/c3ccccn3)c2C)cc1 | 24 | 32.2 | 22 | 22.02 | 31.3 | 24.37 |  |  |  |  |  |  | 
COc1c(N2C[C@H]3CCCN(C(=O)Cn4cc(CN5C(=O)C(=O)c6c(F)cccc65)nn4)[C@H]3C2)c(F)cc2c(=O)c(C(=O)O)cn(C3CC3)c12 |  |  |  |  |  |  | 0.06 (≈ 0.0873 µM) | 0.06 (≈ 0.0873 µM) | 0.06 (≈ 0.0873 µM) | 0.06 (≈ 0.0873 µM) | 0.06 (≈ 0.0873 µM) | 0.06 (≈ 0.0873 µM) | 
Cc1ccccc1-c1cc(CO[C@H](C)[C@](O)(Cn2cncn2)c2ccc(F)cc2F)on1 |  |  |  |  |  |  |  |  |  |  |  |  | MIC80 (Nannizzia gypsea): 2 mg/L (≈ 4.54 µM); MIC80 (Cryptococcus neoformans): 1 mg/L (≈ 2.27 µM); MIC80 (Nakaseomyces glabratus): 0.25 mg/L (≈ 0.568 µM); MIC80 (Aspergillus fumigatus): 4 mg/L (≈ 9.08 µM); MIC80 (Candida albicans [6]): 0.031 mg/L (≈ 0.0704 µM); MIC80 (Trichophyton rubrum): 4 mg/L (≈ 9.08 µM); MIC80 (Candida albicans [7]): 0.125 mg/L (≈ 0.284 µM)
Cc1c(C(=O)/C=C/c2c[nH]c3ccccc23)nnn1-c1ccc(-n2nnc(C(=O)/C=C/c3c[nH]c4ccccc34)c2C)cc1 | 17.2 | 34.2 | 19.2 | 12 | 25 | 15.4 |  |  |  |  |  |  | 
CO/N=C1/C(=O)N(Cc2cn(CC(=O)N3CCC[C@@H]4CN(c5c(F)cc6c(=O)c(C(=O)O)cn(C7CC7)c6c5OC)C[C@@H]43)nn2)c2cccc(F)c21 |  |  |  |  |  |  | 0.06 (≈ 0.0837 µM) | 0.06 (≈ 0.0837 µM) | 0.06 (≈ 0.0837 µM) | 0.06 (≈ 0.0837 µM) | 0.06 (≈ 0.0837 µM) | 0.06 (≈ 0.0837 µM) | 
Cc1c(-c2cc(-c3c[nH]c4ccccc34)nc(NN)n2)nnn1-c1ccc(-n2nnc(-c3cc(-c4c[nH]c5ccccc45)nc(NN)n3)c2C)cc1 | 24.4 | 41.3 | 21.3 | 20.9 | 33.9 | 26.9 |  |  |  |  |  |  | 
Cc1c(C(=O)/C=C/c2cccnc2)nnn1-c1ccc(-n2nnc(C(=O)/C=C/c3cccnc3)c2C)cc1 | 19.3 | 29.3 | 18.03 | 17.3 | 23.7 | 17.8 |  |  |  |  |  |  | 
COc1c(N2C[C@@H]3CCCN[C@@H]3C2)c(F)cc2c(=O)c(C(=O)O)cn(C3CC3)c12 [MOXIFLOXACIN] |  |  |  |  |  |  | 0.06 (≈ 0.149 µM) | 0.06 (≈ 0.149 µM) | 0.06 (≈ 0.149 µM) | 0.06 (≈ 0.149 µM) | 0.06 (≈ 0.149 µM) | 0.06 (≈ 0.149 µM) | 
CCO/N=C1/C(=O)N(Cc2cn(CC(=O)N3CCC[C@@H]4CN(c5c(F)cc6c(=O)c(C(=O)O)cn(C7CC7)c6c5OC)C[C@@H]43)nn2)c2cc(C)ccc21 |  |  |  |  |  |  | 0.06 (≈ 0.0826 µM) | 0.06 (≈ 0.0826 µM) | 0.06 (≈ 0.0826 µM) | 0.06 (≈ 0.0826 µM) | 0.06 (≈ 0.0826 µM) | 0.06 (≈ 0.0826 µM) | 
CO/N=C1/C(=O)N(Cc2cn(CC(=O)N3CCC[C@@H]4CN(c5c(F)cc6c(=O)c(C(=O)O)cn(C7CC7)c6c5OC)C[C@@H]43)nn2)c2cc(C)ccc21 |  |  |  |  |  |  | 0.06 (≈ 0.0842 µM) | 0.06 (≈ 0.0842 µM) | 0.06 (≈ 0.0842 µM) | 0.06 (≈ 0.0842 µM) | 0.06 (≈ 0.0842 µM) | 0.06 (≈ 0.0842 µM) | 
Cc1c(C(=O)/C=C/c2ccncc2)nnn1-c1ccc(-n2nnc(C(=O)/C=C/c3ccncc3)c2C)cc1 | 21.3 | 28.2 | 18.43 | 19.2 | 26.3 | 17.3 |  |  |  |  |  |  | 
C[C@@H](OCc1cc(-c2ccc(F)cc2)no1)[C@](O)(Cn1cncn1)c1ccc(F)cc1F |  |  |  |  |  |  |  |  |  |  |  |  | MIC80 (Nannizzia gypsea): 0.5 mg/L (≈ 1.13 µM); MIC80 (Cryptococcus neoformans): 0.5 mg/L (≈ 1.13 µM); MIC80 (Nakaseomyces glabratus): 0.125 mg/L (≈ 0.281 µM); MIC80 (Aspergillus fumigatus): 4 mg/L (≈ 9 µM); MIC80 (Candida albicans [6]): 0.031 mg/L (≈ 0.0698 µM); MIC80 (Trichophyton rubrum): 1 mg/L (≈ 2.25 µM); MIC80 (Candida albicans [7]): 0.031 mg/L (≈ 0.0698 µM)
C[C@@H](c1nc(-c2ccc(C#N)cc2)cs1)[C@](O)(Cn1cncn1)c1ccc(F)cc1F [RAVUCONAZOLE] |  |  |  |  |  |  |  |  |  |  |  |  | MIC80 (Nannizzia gypsea): 1 mg/L (≈ 2.29 µM); MIC80 (Cryptococcus neoformans): 0.125 mg/L (≈ 0.286 µM); MIC80 (Nakaseomyces glabratus): 0.125 mg/L (≈ 0.286 µM); MIC80 (Aspergillus fumigatus): 2 mg/L (≈ 4.57 µM); MIC80 (Candida albicans [6]): 0.062 mg/L (≈ 0.142 µM); MIC80 (Trichophyton rubrum): 0.125 mg/L (≈ 0.286 µM); MIC80 (Candida albicans [7]): 0.25 mg/L (≈ 0.571 µM)
Cc1c(-c2cc(-c3c[nH]c4ccccc34)nc(S)n2)nnn1-c1ccc(-n2nnc(-c3cc(-c4c[nH]c5ccccc45)nc(S)n3)c2C)cc1 | 21.1 | 37.8 | 19.1 | 20.6 | 30.9 | 22.2 |  |  |  |  |  |  | 

— ChEMBL document CHEMBL5634077, “Recent advances in 1,2,3- and 1,2,4-triazole hybrids as antimicrobials and their SAR: A critical review” (2023)
